# Laboratory results: PubChem BioAssay AID1259407 (Chemical Carcinogenesis Research Information System (CCRIS), 2018)
# Activity calls are given as the source filed them. The rule behind the calls is not given here.
# System: CCRIS mutagenicity, Ames/micronucleus/aberration tests
# Experiment: CCRIS mutagenicity studies
# [1] = Test System: AMES SALMONELLA TYPHIMURIUM, Strain/Indicator: TA98, Metabolic Activation: NONE, Method: PREINCUBATION
# [2] = Test System: AMES SALMONELLA TYPHIMURIUM, Strain/Indicator: TA1537, Metabolic Activation: NONE, Method: PREINCUBATION
# [3] = Test System: AMES SALMONELLA TYPHIMURIUM, Strain/Indicator: TA1538, Metabolic Activation: NONE, Method: PREINCUBATION
# [4] = Test System: AMES SALMONELLA TYPHIMURIUM, Strain/Indicator: TA1535, Metabolic Activation: NONE, Method: PREINCUBATION
# [5] = Test System: AMES SALMONELLA TYPHIMURIUM, Strain/Indicator: TA100, Metabolic Activation: NONE, Method: PREINCUBATION
# [6] = Test System: AMES SALMONELLA TYPHIMURIUM, Strain/Indicator: TA98, Metabolic Activation: HAMSTER, LIVER, S-9, AROCLOR 1254 (10%), Method: PREINCUBATION
# [7] = Test System: AMES SALMONELLA TYPHIMURIUM, Strain/Indicator: TA98, Metabolic Activation: RAT, LIVER, S-9, AROCLOR 1254 (10%), Method: PREINCUBATION
# [8] = Test System: AMES SALMONELLA TYPHIMURIUM, Strain/Indicator: TA100, Metabolic Activation: HAMSTER, LIVER, S-9, AROCLOR 1254 (10%), Method: PREINCUBATION
# [9] = Test System: AMES SALMONELLA TYPHIMURIUM, Strain/Indicator: TA100, Metabolic Activation: RAT, LIVER, S-9, AROCLOR 1254 (10%), Method: PREINCUBATION
# [10] = Test System: AMES SALMONELLA TYPHIMURIUM, Strain/Indicator: TA1535, Metabolic Activation: HAMSTER, LIVER, S-9, AROCLOR 1254 (10%), Method: PREINCUBATION
# [11] = Test System: AMES SALMONELLA TYPHIMURIUM, Strain/Indicator: TA1535, Metabolic Activation: RAT, LIVER, S-9, AROCLOR 1254 (10%), Method: PREINCUBATION
Compound,mutagenic call [1],mutagenic call [2],mutagenic call [3],mutagenic call [4],mutagenic call [5],mutagenic call [6],mutagenic call [7],mutagenic call [8],mutagenic call [9],mutagenic call [10],mutagenic call [11],other results
O.O.O.O.O.[Cd+2].[Cd+2].[Cl-].[Cl-].[Cl-].[Cl-],inactive; negative,inactive; negative,inactive; negative,,,,,,,,,"mutagenic call (End Point: In vivo micronucleus, Test System: Bone marrow polychromatic erythrocytes, Species: Mouse, Strain/Sex: C57BL/6J/Han/Male, Route: Oral): inactive; negative; mutagenic call (Test System: AMES SALMONELLA TYPHIMURIUM, Strain/Indicator: TA98, Metabolic Activation: RAT LIVER S-9, PHENOBARBITAL AND BETA-NAPHTHOFLAVONE, Method: PREINCUBATION): inactive; negative; mutagenic call (Test System: AMES SALMONELLA TYPHIMURIUM, Strain/Indicator: TA100, Metabolic Activation: RAT LIVER S-9, PHENOBARBITAL AND BETA-NAPHTHOFLAVONE, Method: PREINCUBATION): inactive; negative; mutagenic call (Test System: AMES SALMONELLA TYPHIMURIUM, Strain/Indicator: TA1535, Metabolic Activation: RAT LIVER S-9, PHENOBARBITAL AND BETA-NAPHTHOFLAVONE, Method: PREINCUBATION): inactive; negative; mutagenic call (Test System: AMES SALMONELLA TYPHIMURIUM, Strain/Indicator: TA1537, Metabolic Activation: RAT LIVER S-9, PHENOBARBITAL AND BETA-NAPHTHOFLAVONE, Method: PREINCUBATION): inactive; negative; mutagenic call (Test System: AMES SALMONELLA TYPHIMURIUM, Strain/Indicator: TA1538, Metabolic Activation: RAT LIVER S-9, PHENOBARBITAL AND BETA-NAPHTHOFLAVONE, Method: PREINCUBATION): inactive; negative; mutagenic call (Test System: E.COLI, Strain/Indicator: WP2UVRA, Metabolic Activation: NONE, Method: PREINCUBATION): inactive; negative; mutagenic call (Test System: E.COLI, Strain/Indicator: WP2UVRA, Metabolic Activation: RAT LIVER S-9, PHENOBARBITAL AND BETA-NAPHTHOFLAVONE, Method: PREINCUBATION): inactive; negative"
C[n+]1c2ccccc2c(N)c2ccccc21,,active; positive,inactive; negative,active; positive,,,,,,,,"mutagenic call (Test System: AMES SALMONELLA TYPHIMURIUM, Strain/Indicator: TA1535, Metabolic Activation: RAT, LIVER, S-9, TETRACHLOROBIPHENYL, Method: PREINCUBATION): active; positive; mutagenic call (Test System: AMES SALMONELLA TYPHIMURIUM, Strain/Indicator: TA1537, Metabolic Activation: RAT, LIVER, S-9, TETRACHLOROBIPHENYL, Method: PREINCUBATION): active; positive; mutagenic call (Test System: AMES SALMONELLA TYPHIMURIUM, Strain/Indicator: TA1538, Metabolic Activation: RAT, LIVER, S-9, TETRACHLOROBIPHENYL, Method: PREINCUBATION): inactive; negative; mutagenic call (Test System: AMES SALMONELLA TYPHIMURIUM, Strain/Indicator: TA1977, Metabolic Activation: NONE, Method: PREINCUBATION): active; positive; mutagenic call (Test System: AMES SALMONELLA TYPHIMURIUM, Strain/Indicator: TA1977, Metabolic Activation: RAT, LIVER, S-9, TETRACHLOROBIPHENYL, Method: PREINCUBATION): active; positive"
N[C@@H](CS/C=C/Cl)C(=O)O,,,,,inactive; negative,,,,,,,"mutagenic call (Test System: AMES SALMONELLA TYPHIMURIUM, Strain/Indicator: TA2638, Metabolic Activation: NONE, Method: PREINCUBATION): active; positive"
CC(C)CN(CC(C)C)CC(C)C,inactive; negative,inactive; negative,,inactive; negative,inactive; negative,inactive; negative,inactive; negative,inactive; negative,inactive; negative,inactive; negative,inactive; negative,"mutagenic call (Test System: AMES SALMONELLA TYPHIMURIUM, Strain/Indicator: TA1537, Metabolic Activation: HAMSTER, LIVER, S-9, AROCLOR 1254 (10%), Method: PREINCUBATION): inactive; negative; mutagenic call (Test System: AMES SALMONELLA TYPHIMURIUM, Strain/Indicator: TA1537, Metabolic Activation: RAT, LIVER, S-9, AROCLOR 1254 (10%), Method: PREINCUBATION): inactive; negative"
C=CCc1[c-]cccc1.C=CCc1[c-]cccc1.[Pt+2].c1ccc(P(c2ccccc2)c2ccccc2)cc1.c1ccc(P(c2ccccc2)c2ccccc2)cc1,,,,,,,,,,,,"mutagenic call (Test System: AMES SALMONELLA TYPHIMURIUM, Strain/Indicator: TA92, Metabolic Activation: NONE, Method: STANDARD PLATE): inactive; negative; mutagenic call (Test System: AMES SALMONELLA TYPHIMURIUM, Strain/Indicator: TA98, Metabolic Activation: NONE, Method: STANDARD PLATE): inactive; negative; mutagenic call (Test System: AMES SALMONELLA TYPHIMURIUM, Strain/Indicator: TA100, Metabolic Activation: NONE, Method: STANDARD PLATE): inactive; negative; mutagenic call (Test System: AMES SALMONELLA TYPHIMURIUM, Strain/Indicator: TA2410, Metabolic Activation: NONE, Method: STANDARD PLATE): inactive; negative"
Cc1cccc(N)c1C,inactive; negative,,,inactive; negative,inactive; negative,active; positive,inactive; negative,active; positive,inactive; negative,inactive; negative,inactive; negative,"mutagenic call (Test System: AMES SALMONELLA TYPHIMURIUM, Strain/Indicator: TA97, Metabolic Activation: HAMSTER, LIVER, S-9, AROCLOR 1254 (10%), Method: PREINCUBATION): inactive; negative; mutagenic call (Test System: AMES SALMONELLA TYPHIMURIUM, Strain/Indicator: TA97, Metabolic Activation: NONE, Method: PREINCUBATION): inactive; negative; mutagenic call (Test System: AMES SALMONELLA TYPHIMURIUM, Strain/Indicator: TA97, Metabolic Activation: RAT, LIVER, S-9, AROCLOR 1254 (10%), Method: PREINCUBATION): inactive; negative"
